Assay results taken from patent publication US11352353B2, “Heterocyclic compound serving as FGFR4 inhibitor” (Hangzhou Innogate Pharma Co., Ltd., priority 2016, dated 2022).

How the values were obtained:
Huh7 tumor cells = experiment: Inhibition of Huh-7 tumor cell proliferation (CellTiter Glo); assay type: cell-based; settings: Homo sapiens, 72 or 168 hours
Protocol: 2. Compound Inhibition Test on Huh-7 Tumor Cell Proliferation
The Huh7 cell suspension was adjusted to 5×10e4/mL or 2×10e4/mL with DMEM+2 Mm Glutamine+10% FBS medium. A 100 μL cell suspension was added to each well in a 96-well cell culture plate at a final cell concentration of 5000 cells/well (72 hours) or 2000 cells/well (168 hours). The test compound was dissolved in DMSO as a 10 mM stock solution. Compounds at a final concentration of 200× were prepared using stock solutions and DMSO, and 3× serial dilutions were prepared and then diluted 20-fold with each medium. Finally, 10 μL of the corresponding 10-fold solution was added to each well of each cell, and each drug concentration was single-well. The final concentrations of each compound were 3000 nM, 1000 nM, 333.3 nM, 111.1 nM, 37.04 nM, 12.35 nM, 4.12 nM, 1.37 nM, and the final concentration of DMSO per well was 0.5%. Incubate for 72 or 168 hours in a 37° C., 5% CO2 incubator. After 72 or 168 hours of drug treatment, according to the CTG instructions, add 100 µL CellTiter Glo detection reagent per well, pre-melt and equilibrate to room temperature CTG solution, mix with a microplate shaker for 2 minutes, and leave at room temperature for 10 minutes. The chemiluminescence signal value was then measured using an EnSpire plate reader. Cell survival rate was calculated using formula: (Vsample−Vblank)/(Vvehicle control−Vblank)×100%. Vsample is the reading of the drug treatment group, Vvehicle control is the average value of the solvent control group, and Vblank is the average value of the blank control well. The S-type dose-survival curve was plotted and the IC50 values were calculated using the GraphPad Prism 5.0 software using a non-linear regression model.

FGFR4 = FGFR4 (Homo sapiens, UniProt P22455); experiment: FGFR4 kinase activity inhibition (Caliper mobility shift assay); assay type: biochemical; settings: FAM-labeled peptide and ATP, 28° C. 30-60 minutes, read-out: FGFR kinase inhibition (IC50, nM) FGFR4
Chain of FGFR4 (P22455 22-802): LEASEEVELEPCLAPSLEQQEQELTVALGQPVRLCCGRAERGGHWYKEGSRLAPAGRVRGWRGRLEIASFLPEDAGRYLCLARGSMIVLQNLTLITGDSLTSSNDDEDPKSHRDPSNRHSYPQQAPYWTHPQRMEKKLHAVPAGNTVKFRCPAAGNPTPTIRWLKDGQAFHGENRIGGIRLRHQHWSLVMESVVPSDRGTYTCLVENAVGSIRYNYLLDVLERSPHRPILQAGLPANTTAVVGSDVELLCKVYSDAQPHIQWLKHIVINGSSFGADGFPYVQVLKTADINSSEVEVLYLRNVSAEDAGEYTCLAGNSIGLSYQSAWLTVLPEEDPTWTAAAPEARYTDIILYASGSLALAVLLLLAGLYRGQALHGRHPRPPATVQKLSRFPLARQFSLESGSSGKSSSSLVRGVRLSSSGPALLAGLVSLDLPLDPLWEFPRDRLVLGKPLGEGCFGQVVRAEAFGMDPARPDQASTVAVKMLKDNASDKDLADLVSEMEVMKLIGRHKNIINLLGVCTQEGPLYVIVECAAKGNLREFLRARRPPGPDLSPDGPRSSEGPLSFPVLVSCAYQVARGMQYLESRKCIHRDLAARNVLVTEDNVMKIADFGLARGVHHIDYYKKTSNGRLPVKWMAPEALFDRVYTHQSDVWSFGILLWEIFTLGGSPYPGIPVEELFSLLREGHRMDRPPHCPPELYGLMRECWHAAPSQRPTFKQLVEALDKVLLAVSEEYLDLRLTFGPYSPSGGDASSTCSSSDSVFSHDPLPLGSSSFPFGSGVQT
Protocol: (§1) 1. FGFR1 and FGFR4 Kinase Activity Inhibition Experiments
(§2) The FGFR1, FGFR2, FGFR3 and FGFR4 protein kinase activities were determined using the Caliper mobility shift assay. The compound was dissolved in DMSO and diluted with kinase buffer, and 5 µL of a 5-fold final concentration of the compound (10% DMSO) was added to a 384-well plate. After adding 10 µL of 2.5-fold enzyme (FGFR1 and FGFR4, respectively) solution, incubate for 10 minutes at room temperature, and then add 10 µL of a (FAM-labeled peptide and ATP) solution. Incubate at 28° C. for 30-60 minutes and stop the reaction by adding 25 µL stop solution. Conversion rate data was read on a Caliper EZ Reader II (Caliper Life Sciences). The conversion rate was converted into inhibition rate data (% inhibition rate=(max−sample conversion rate)/(max−min)*100). Wherein max is the conversion of the DMSO control and min is the conversion of the enzyme-free control. Plot the curve with the compound concentration and inhibition rate on the horizontal and vertical coordinates, and fit the curve and calculate the IC50 using XLFit excel add-in version 4.3.1 software.

FGFR1 = FGFR1 (Homo sapiens, UniProt P11362); experiment: FGFR1 kinase activity inhibition (Caliper mobility shift assay); assay type: biochemical; settings: FAM-labeled peptide and ATP, 28° C. 30-60 minutes, read-out: FGFR kinase inhibition (IC50, nM) FGFR1
Chain of FGFR1 (P11362 22-822): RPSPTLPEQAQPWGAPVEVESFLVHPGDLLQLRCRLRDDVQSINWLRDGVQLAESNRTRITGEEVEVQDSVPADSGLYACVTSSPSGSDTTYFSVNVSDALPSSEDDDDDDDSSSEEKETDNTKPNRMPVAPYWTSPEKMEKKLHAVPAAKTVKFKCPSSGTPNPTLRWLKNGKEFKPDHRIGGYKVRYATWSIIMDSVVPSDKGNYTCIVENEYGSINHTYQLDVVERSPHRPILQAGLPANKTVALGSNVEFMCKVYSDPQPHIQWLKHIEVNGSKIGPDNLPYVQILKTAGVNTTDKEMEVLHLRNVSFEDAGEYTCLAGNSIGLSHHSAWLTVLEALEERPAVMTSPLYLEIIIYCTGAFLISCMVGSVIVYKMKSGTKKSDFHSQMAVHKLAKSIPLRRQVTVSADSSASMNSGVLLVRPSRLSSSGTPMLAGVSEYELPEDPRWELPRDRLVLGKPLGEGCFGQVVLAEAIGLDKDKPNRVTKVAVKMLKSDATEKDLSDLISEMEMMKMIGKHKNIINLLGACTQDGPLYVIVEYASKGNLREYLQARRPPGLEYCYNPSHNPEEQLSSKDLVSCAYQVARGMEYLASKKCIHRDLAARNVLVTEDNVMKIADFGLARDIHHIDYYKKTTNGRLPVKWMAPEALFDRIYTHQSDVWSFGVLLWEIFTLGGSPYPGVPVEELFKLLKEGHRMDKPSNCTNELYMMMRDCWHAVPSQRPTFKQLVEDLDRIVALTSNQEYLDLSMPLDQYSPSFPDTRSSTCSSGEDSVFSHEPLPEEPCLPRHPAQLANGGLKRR
Protocol: as §1, §2

Row | SMILES | IC50 (Huh7 tumor cells) [nM] | IC50 (FGFR4) [nM] | IC50 (FGFR1) [nM]
1 | N#Cc1cnc(NC(=O)N2CCCc3cc(CN4CC5CCCN5CC4=O)c(C=O)nc32)cc1OC1CC1 (stereo not drawn) [Compound 6] | < 500 | – | –
2 | COCC1(Oc2cc(NC(=O)N3CCCc4cc(CN5CCN(C)CC5=O)c(C=O)nc43)ncc2C#N)CC1 [Compound 7] | < 500 | – | –
3 | COCCNc1cc(NC(=O)N2CCCc3cc(CN4CCN5CCCC5C4=O)c(C=O)nc32)ncc1C#N (stereo not drawn) [Compound 10] | – | < 5 | –
4 | COCCNc1cc(NC(=O)N2CCCc3cc(CN4CCCN(C)CC4=O)c(C=O)nc32)ncc1C#N [Compound 9] | – | < 5 | –
5 | COC1CC(Nc2cc(NC(=O)N3CCCc4cc(CN5CCN(C)CC5=O)c(C=O)nc43)ncc2C#N)C1 (stereo not drawn) [Compound 8] | – | < 5 | –
6 | CN1CCN(Cc2cc3c(nc2C=O)N(C(=O)Nc2cc(OC4CC4)c(C#N)cn2)CCC3)C(=O)C1 [Compound 1] | < 50 | – | > 10000
7 | CN1CCN(Cc2cc3c(nc2C=O)N(C(=O)Nc2cc(NC4CC4)c(C#N)cn2)CCC3)C(=O)C1 [Compound 12] | – | < 5 | –
8 | N#Cc1cnc(NC(=O)N2CCCc3cc(CN4CCN(C5CC5)CC4=O)c(C=O)nc32)cc1OC1CC1 [Compound 4] | < 500 | < 20 | –
9 | COC1CCC(Oc2cc(NC(=O)N3CCCc4cc(CN5CCN(C)CC5=O)c(C=O)nc43)ncc2C#N)CC1 (stereo not drawn) [Compound 2] | < 50 | – | > 10000
10 | CO[C@H]1CC[C@@H](Nc2cc(NC(=O)N3CCCc4cc(CN5CCN(C)CC5=O)c(C=O)nc43)ncc2C#N)CC1 [Compound 3] | < 50 | – | –
11 | CN1CCCN(Cc2cc3c(nc2C=O)N(C(=O)Nc2cc(OC4CC4)c(C#N)cn2)CCC3)C(=O)C1 [Compound 5] | < 50 | – | –
12 | COCCNc1cc(NC(=O)N2CCCc3cc(CN4CCN(C5CN(C)C5)CC4=O)c(C=O)nc32)ncc1C#N [Compound 11] | – | < 5 | –
